Measured values taken from US6043072A, “Nucleic acids encoding Taxus geranylgeranyl diphosphate synthase, and methods of use” (Washington State University Research Foundation, priority 1998, dated 2000).
Values belong to the compound of their own block, whether it stands above or below them.

Assays:
[1] = target: T. canadensis GGPP synthase (Taxus canadensis, UniProt Q9ZPM3); test: Kinetic evaluation of recombinant GGPP synthase (standard prenyltransferase assay, double reciprocal plots); type: biochemical; settings: for relative velocities of the reaction with allylic co-substrates: co-substrate at 12.5 and 25 mM, IPP and Mg^2+ at saturation
Chain of T. canadensis GGPP synthase (Q9ZPM3 99-393): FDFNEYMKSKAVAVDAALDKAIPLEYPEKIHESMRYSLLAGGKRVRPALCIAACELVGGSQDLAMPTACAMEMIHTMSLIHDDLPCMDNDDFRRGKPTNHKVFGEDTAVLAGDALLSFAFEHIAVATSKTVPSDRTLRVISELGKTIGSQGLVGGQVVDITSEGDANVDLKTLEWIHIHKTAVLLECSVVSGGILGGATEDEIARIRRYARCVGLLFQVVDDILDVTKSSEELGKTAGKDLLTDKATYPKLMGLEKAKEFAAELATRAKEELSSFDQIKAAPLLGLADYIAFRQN
Method: The reaction was quenched by the addition of 300 mil of methanol:conc. HCl (4:1, v/v), and the allylic diphosphate products were solvolyzed (50, 51) upon further incubation at 42° C. for 20 min. The resulting solvolysis products were extracted twice with 1 ml pentane, and were either analyzed by liquid scintillation counting (in toluene:ethanol (7:3, v/v) containing 0.4% Omnifluor (DuPont NEN); ^14 C counting efficiency=96.0%) or concentrated on ice under a gentle stream of Ar to […] for further analysis.

[2] = target: T1, GGPP synthase proteins (Taxus canadensis, UniProt Q9ZPM3); test: Physical properties of GGPP synthase proteins isolated from various Taxus species (Table 1); type: biochemical, T. canadensis; T. brevifolia; T. cuspidata and T. baccata
T1 construct: values reportedly equal those of recombinant truncated (mature) T. canadensis enzyme
T1 sequence (Q9ZPM3 99-393): as above

[3] = system: T. canadensis suspension cell cultures; test: Methyl jasmonate induction of suspension cell cultures: paclitaxel in medium and cell mass; type: cell-based
Method: Suspension cell cultures were treated with methyl jasmonate 7 d after subculture and harvested at 8, 12, 24, 48 or 168 h after elicitation, or immediately before induction. During this 7 d induction period, the wet cell mass increased by about 10% and the paclitaxel concentration in the medium (where the majority of the taxoids accumulate) rose from 2.5 mg/l to 32 mg/I, with the greatest increase occurring after 48 h. The concentration of paclitaxel was measured by calibrated HPLC with UV detection as described in Hezari et al, Arch. Biochem. Biophys., 337:185-190 (1997).

[4] = system: GGPP synthase mRNA; test: RNA-blot analysis over the time course of methyl jasmonate induction; type: cell-based, T. canadensis; settings: at 8 h; elevated through at least 48 h
Method: (§1) Total RNA was isolated from T. canadensis suspension cell cultures using the method set forth in Example 1. Equivalent amounts of RNA […] from cells that had been harvested 8, 12, 24, 48, and 168 h after methyl jasmonate induction, as well as RNA isolated from non-induced cells (0 h), were separated by electrophoresis on a formaldehyde-denaturing agarose gel, along with RNA size standards (Promega Corporation, Madison, Wis.). The separated RNA was blotted to nylon membrane by capillary action and then fixed by UV irradiation. Radiolabeled probes corresponding to the full length GGPP synthase coding region (nucleotide 308 to nucleotide 1489 of the nucleic acid sequence set forth in SEQ ID NO:1), and to an internal fragment (nucleotides 173 to 1875 inclusive) of the taxadiene synthase cDNA reported in Wildung, M. R. and Croteau, R. (1996) J. Biol. […] The blot was incubated sequentially with each probe for 16 h at 65° C., then washed twice with 2×SSC at room temperature, and then thrice with 0.5×SSC at 65° C. The blot was imaged using a Bio-Rad GS-525 Molecular Imager® System and Molecular Analyst version 2.1 software.

[5] = system: taxadiene synthase mRNA; test: as above; type: cell-based, T. canadensis; settings: at 8 h; elevated through at least 48 h
Method: as §1

[6] = system: taxadiene synthase; test: Enzyme activity in cell culture extracts after methyl jasmonate induction; type: cell-based, T. canadensis; settings: crude extracts, 0-168 h after induction (FIG. 5)
Method: (§2) The same T. canadensis cell cultures used for RNA blot analysis were also used to determine the relative activities of GGPP synthase and taxadiene synthase over the course of methyl jasmonate induction of paclitaxel biosynthesis. […] Particulate material and cellular debris were removed from the homogenates by centrifugation, first at 3000 g, then at 31,000 g, for 20 min at 4° C. Protein concentration in the supernatant used as the enzyme source was estimated by the method of Bradford (Bradford, M. M. (1976) Anal. Biochem. 72:24814 254). GGPP synthase activity was determined by the standard prenyltransferase assay described in Example 4, except that 100 μl of crude extract (150 μg protein) isolated from T. canadensis cell cultures was used as the enzyme source and the reactions were incubated for 10 min. Taxadiene synthase activity was determined by measuring the Mg^2+ -dependent conversion of [1-^3 H1 ]geranylgeranyl diphosphate (15 μM) to the olefin product as described in Hezari, M., Lewis, N. G. and Croteau, R. (1995) Arch. Biochem. Biophys., 322:437-444; […]., Gibson, D. M. and Croteau, R. (1997) Arch. Biochem. Biophys., 337:185-190. In this assay, 500 μl of the crude extract (750 μg protein) was incubated at 3 1° C. for 1 h.

[7] = system: GGPP synthase; test: as above; type: cell-based, T. canadensis; settings: crude extracts, 0-168 h after induction (FIG. 5)
Method: as §2

SMILES: [Mn+2] [Mn^2+]
- support of catalysis as divalent metal ion cofactor [1]: did not support catalysis

SMILES: CC/C=C\CC1C(=O)CCC1CC(=O)OC (centres unmarked) [methyl jasmonate]
- paclitaxel concentration in the medium ([3]; after 7 d induction period, rose from 2.5 mg/l): 32 mg/I
- increase of wet cell mass ([3]; during 7 d induction period): about 10%
- steady state mRNA level of GGPP synthase [4]: rapid increase
- steady state mRNA level of taxadiene synthase [5]: rapid increase
- taxadiene synthase activity level [6]: rose steadily to 48 h
- GGPP synthase activity level [7]: rose steadily to 48 h

SMILES: CC(C)=CCC/C(C)=C/COP(=O)(O)OP(=O)(O)O [GPP, geranyl diphosphate]
- relative velocities of the reaction with allylic co-substrates [1]: 100%

More lines, now with the values ahead:

- relative velocities of the reaction with allylic co-substrates [1]: 66%
SMILES: CC(C)=CCC/C(C)=C/CC/C(C)=C/CO[P@@](=O)(O)OP(=O)(O)O (stereo in doubt) [FPP, farnesyl diphosphate]

- Km [2]: 35 ± 3 µM
- Km ([1]; double reciprocal plotting, remaining reactants at saturation): 35 µM
SMILES: [Mg+2] [Mg^2+]
